Tests used:
[1] = Cell viability (neutral red) on the replicon system; assay type: cell-based; details: human, Huh7 cells harbouring the subgenomic HCV replicon BM4-5, neutral red test, drug renewed daily for three days, read-out: CC50, cytotoxicity on Replicon System
Protocol: (§1) Antiviral and Cytotoxicity assays for HCV. Huh7 cells harbouring the subgenomic HCV replicon BM4-5 (J. T. Guo et al., J. Virol. 2001, 75: 8516-8523) were used in this study. Cells were maintained in Dulbecco's modified Eagle's medium high glucose 4.5 g/l (LifeTechnlogies) supplemented with 10% fetal bovine serum, 1% L-glutamine, 1% penicillin and streptomycin, 1% L-Pyruvate and 500 μg/ml of geneticien (G418, Invitrogen). Geneticin was used to select cells permitting the HCV RNA replication. Cells were passaged every four days with a 1:4 ratio.
For cell viability assays, cells were seeded in 96-well plates at a density of 12,500 cells per well. They were treated by the different molecules with the same concentrations and conditions than those used for the antiviral assays. Then, cell viability was measured by neutral red assay. Neutral red specifically colors lysosomes and its accumulation depends on cellular membrane integrity. The yield of neutral red incorporated in cells is proportional to the number of living cells. At the end of treatment, culture medium was removed; cells were washed by PBS, then coloured with neutral red at 0.005% for 3 hours at 37° C. Cells were then fixed 1 minute by formol calcium and lysed by atreatment with a vol/vol mixture of acetic acid and ethanol. After 15 minutes incubation, absorbance was read at 490 nm.

[2] = Cytotoxicity against CEM cells; assay type: cell-based; details: human
[3] = Cytotoxicity against VERO cells; assay type: cell-based; details: African green monkey
[4] = test system: subgenomic HCV replicon BM4-5 in Huh7 cells; experiment: Antiviral assay on HCV subgenomic replicon, Northern blot of (+)-strand HCV RNA; assay type: cell-based, Hepatitis C Virus; details: for IC50 / IC90: Hepatitis C virus, 72 h, Huh7 BM4-5 replicon, positive strand HCV RNA by Northern blot, three days treatment; for IC50: read-out: IC50, anti-HCV activity, (+)-RNA; for IC90: read-out: IC90, anti-HCV activity, (+)-RNA; for Selectivity Index (SI), ratio between CC50 and IC50: replicon system
Protocol: as §1
Cells were seeded in 6-wells plates at a density of 2.5×10^5 cells per well, sixteen hours before the beginning of treatment. […] The administration of each drug was renewed every day for three consecutive days. Ribarivin (ICN Pharmaceuticals), mycophenolic acid (MPA, Sigma), and interferon alpha-2b (IntronA®)) were used in the same conditions as positive controls. The concentrations used for these drugs were respectively: 0; 0.5; 1; 2; 4; 8; 16; 32; 64; 128; 256 and 512 μM for ribavirin, 0; 2.5; 5; 10; 20; 40 μM for mycophenolic acid, and 0; 0.1; 1; 10; 100 and 1000 Ul/mL for IFN alpha-2b. Total RNA was extracted at the end of treatment (24 hours after the last day of treatment) with the <<Extract all>> reagent (Eurobio), which is a mix of phenol and guanidium thiocyanate. Northern blot analysis was then performed using the NorthernMax™-Gly kit (Ambion), following manufacturer's instructions. Five micrograms of total RNA were denaturated in glyoxal buffer at 50° C. for 30 minutes, separated by 1.1% agarose gel electrophoresis, and then transferred for 12 hours onto a charged nylon membrane (HybondN+, Amersham). Hybridization was carried out with three different [^32P]CTP-labelled riboprobes obtained by in vitro transcription (Riboprobe in vitro transcription system, Promega). Two probes were complementary to the NS5A region of the HCV genome of negative polarity and positive polarity. A third probe was complementary to the beta-actin mRNA and obtained by in vitro transcription from a specific plasmid (PTRI beta actin human, reference 7424, Ambion). First, the blot was hybridized with the riboprobes directed against the negative strand of HCV RNA and beta-actin mRNA, respectively. After one night of hybridization at 68° C., the membrane was washed, then exposed to X-ray film and a phosphor screen (phosphorimager). This screen was then scanned and quantitative analysis was achieved using ImageQuant software. The amount of beta-actin mRNA was used as an internal loading control to standardize the amount of HCV RNA detected. The same membrane was subsequently hybridized with the […] to determine the level of positive strand HCV RNA, suing the same approach.

[5] = Cytotoxicity against PBM cells; assay type: cell-based; details: human

Compound | CC50 at 3 days [1] [µM] | CC50 [2] [µM] | CC50 [3] [µM] | IC50 [4] [µM] | IC90 [4] [µM] | Selectivity Index (SI), ratio between CC50 and IC50 [4] | CC50 [5] [µM]
O=c1[nH]c(=O)n([C@@H]2O[C@H](CO)[C@@H](O)[C@H]2O)cc1C#CI [Compound 12b, 5-(2-Iodoethynyl)-uridine] | 148 | > 100 | > 100 | > 200 | > 200 | <1 | > 100
O=c1[nH]c(=O)n([C@@H]2O[C@H](CO)C[C@H]2O)cc1C#CI [Compound 12c, 5-(2-Iodoethynyl)-3′-deoxyuridine] | > 200 | > 100 | 3.2 | > 200 | > 200 | ≦1 | > 100
O=c1[nH]c(=O)n([C@H]2C[C@H](O)[C@@H](CO)O2)cc1C#CBr [Compound 13a, 5-(2-Bromoethynyl)-2′-deoxyuridine] | > 200 | > 100 | > 100 | > 200 | > 200 | ≧1 | > 100
O=c1[nH]c(=O)n([C@@H]2O[C@H](CO)C[C@H]2O)cc1C#CBr [Compound 13c, 5-(2-Bromoethynyl)-3′-deoxyuridine] | > 300 | > 100 | 6.4 | > 300 | > 300 | ≦1 | > 100
O=c1[nH]c(=O)n([C@@H]2O[C@H](CO)C[C@H]2O)cc1/C(I)=C\I [Compound 14c, (E)-5-(1,2-Diiodovinyl)-3′-deoxyuridine] | > 200 | > 100 | 42.6 | > 200 | > 200 | ≦1 | 87.2
O=c1[nH]c(=O)n([C@H]2C[C@H](O)[C@@H](CO)O2)cc1/C(Br)=C\I [Compound 15a, (E)-5-(1-Bromo-2-iodovinyl)-2′-deoxyuridine] | 43 | 0.13 | 6.6 | > 100 | > 100 | <1 | 13.3
O=c1[nH]c(=O)n([C@@H]2O[C@H](CO)[C@@H](O)[C@H]2O)cc1/C(Br)=C\I [Compound 15b, (E)-5-(1-Bromo-2-iodovinyl)-uridine] | > 100 | 93.6 | > 100 | > 100 | > 100 | ≦1 | > 100
O=c1[nH]c(=O)n([C@H]2C[C@H](O)[C@@H](CO)O2)cc1/C(Cl)=C\I [Compound 16a, (E)-5-(1-Chloro-2-iodovinyl)-2′-deoxyuridine] | 213 | 14.8 | 1.4 | 79.8 | > 207 | 2.7 | 3.2
O=c1[nH]c(=O)n([C@@H]2O[C@H](CO)C[C@H]2O)cc1/C(Cl)=C\I [Compound 16c, (E)-5-(1-Chloro-2-iodovinyl)-3′-deoxyuridine] | > 200 | 66.6 | 15.3 | > 200 | > 200 | ≦1 | 94.4
O=c1[nH]c(=O)n([C@H]2C[C@H](O)[C@@H](CO)O2)cc1/C(Br)=C\Br [Compound 17a, (E)-5-(1,2-Dibromovinyl)-2′-deoxyuridine] | > 200 | 43.9 | > 100 | < 200 | > 200 | ≧1 | > 100
COc1c(C)c2c(c(O)c1C/C=C(\C)CCC(=O)O)C(=O)OC2 [MPA, mycophenolic acid, reference compound] | 7 |  |  | 40 |  | <1 | 

Source: patent US20090004137A1, “Uridine Derivatives as Antiviral Drugs Against a Flaviviridae, Especially Hcv” (priority 2004, published 2009)
